Assay results as given in patent US20190086390A1, “INDIRECT ASSESSMENT OF INSULIN RELEASE IN A CELL” (Board of Supervisors of Louisiana State University and …, priority 2016, published 2019).
Entries after “also recorded” stand apart in the source; their conditions may differ.

Legend:
832/13 cells [1] = assay: Glucose-stimulated insulin secretion (GSIS) in 832/13 cells, insulin ELISA; assay type: cell-based, rat
Protocol: 832/13 cells were grown in 12-well plates and treated as indicated. Glucose-stimulated insulin secretion (GSIS) assays were performed as described previously (29). Insulin secretion by cell lines into the media was measured using either the High Range Rat Insulin ELISA kit (Mercodia, Uppsala, Sweden) or by rat islets using the insulin radioimmunoassay (Siemens, Malvern, Pa.) according to the company directions. In addition, cells were lysed using M-PER lysis reagent (Thermo Fisher Scientific) to quantify total intracellular protein content via BCA assay (Thermo Fisher Scientific). Insulin secretion data were normalized to total protein to account for any differences in cell number between treatment groups. Incorporation of tritiated thymidine into DNA as a cellular index of proliferation was carried out as described (45).

[2] = tested on: islets isolated from ZDF rats; conditions: islets from ZDF rats and clonal cells cultured in lipids; cited from earlier work
CCL2 = CCL2 secretion into media of 832/13 cells, ELISA; assay type: cell-based, rat; conditions: 1 ng/ml IL-1β + 1 mM I-NMMA, 6 h
Protocol: (§1) 832/13 cells were grown in 12-well plates and treated as indicated. RPMI was supplemented with 0.3% BSA, and media were collected at the indicated time points. In addition, the cells were lysed using M-PER lysis reagent (Thermo Fisher Scientific) to quantify total intracellular protein content. CCL2 and CCL20 secretion into the media was measured by CCL2 Quantikine ELISA kit (R & D Systems, Minneapolis, Minn.) and CCL20 DuoSet ELISA kit (R & D Systems) according to the manufacturer's protocol. ELISA data were normalized to total protein to account for any differences in cell number between treatment groups.

CCL20 = CCL20 secretion into media of 832/13 cells, ELISA; assay type: cell-based, rat; conditions: 1 ng/ml IL-1β + 1 mM I-NMMA, 6 h
Protocol: as §1

832/13 cells [3] = assay: Nitrite accumulation in culture media, Griess assay; assay type: cell-based, rat; conditions: 832/13 cells, 1 ng/ml IL-1β 18 h
Protocol: (§2) Nitrite in the cell culture media was measured as an index of NO production using the Griess assay kit (Promega, Madison, Wis.), whereas cellular reduction of the 3-(4,5-dimethylthiazol-2-yl)-5-(3-carboxymethoxyphenyl)-2-(4-sulfophe-nyl)-2H-tetrazohum, inner salt (MTS) dye was determined using the MTS 1 solution kit (Promega) according to the manufacturer's protocol.

832/13 cells [4] = assay: Nitric oxide by EPR spectroscopy with (MGD)2Fe2+ spin trap; assay type: cell-based, rat; conditions: 1 ng/ml IL-1β 18 h
Protocol: The spin trap Af-methyl-d-glucamine dithiocarbamate-iron complex [(MGD)2-Fe^2+] was prepared fresh in each experiment by making stock solutions of 500 mM MGD and 100 mM Fe^2+ (from FeS04.7 H20) in ultrapure water under anaerobic conditions. A final concentration of 25 mM MGD and 5 mM Fe^2+ was introduced onto cells in culture using serum-free media with a 30-min incubation period. Supernatants were then collected for the measurements of the (MGD)2-iron-NO complex. All electron paramagnetic resonance (EPR) measurements were carried out in a quartz flat cell at room temperature. Samples were transferred directly into the flat cell, which was then placed into the cavity of a Bruker EMX Plus spectroscope. Typical instrumental conditions were as follows: 20 mW of microwave power, 5.0-G modulation amplitude, 1×10^5 gain, 0.163-s time constant, and 80-G scan range. Quantitation was carried out by measuring and comparing the first peak heights on the spectra.

832/13 cells [5] = assay: MTS dye reduction assay; assay type: cell-based, rat; conditions: 1 ng/ml IL-1β + 1 mM I-NMMA, 18 h
Protocol: as §2

832/13 cells [6] = assay: Oxygen consumption rate (Seahorse XF24); assay type: cell-based, rat; conditions: 1 ng/ml IL-1β + 1 mM I-NMMA, 18 h
Protocol: Oxygen consumption rates (OCR) were measured using the XF^24 Extracellular Flux Analyzer (Seahorse Bioscience, Chicopee, Mass.). 832/13 cells were grown on cell culture plates for 2 days prior to OCR assays being run. Cells were treated with vehicle, 1 ng/ml IL-β, 1 mM I-NMMA, or both IL-1β (1 ng/ml) plus I-NMMA (1 mM) for 18 h prior to OCR being measured. The oxygen consumption rate was measured over a 2-h period. Data represent the calculated average area under the curve from six wells per treatment group over multiple independent experiments.

832/13 cells [7] = assay: Live cell calcium imaging, glucose-induced calcium response (Calcium Green); assay type: cell-based, rat
Protocol: 832/13 cells were plated into six-well plates containing poly-d-lysine-coated coverslips (Neuvitro, Vancouver, Wash.). At 50% confluence, cells were treated for 18 h with one of four experimental groups: 1 ng/ml […] alone, 1 mM I-NMMA alone, IL-1β+ I-NMMA, or normal growth media. Immediately prior to imaging, cells were preloaded with Calcium Green 1 AM (CG, C3012; Life Technologies) by transferring coverslips to a solution of 10|×M CG in 20% Pluronic F127 in DMSO (Life Technologies) made up in carbogenated (95% 02-5% C02) normal Krebs. The recipe for normal Krebs solution was (in mM) 124 NaCl, 25 NaHC03, 2 glucose, 3 KC1, 2 CaCl2, 1.5 NaH2P04, and 1 MgS04-7H20, which corrected to pH 7.4 with HCl. After incubation in the CG solution for 30 min, coverslips were transferred to carbogenated normal Krebs at 29° C.
Coverslips were transferred to a recording chamber on a fixed stage Zeiss Axioskop2 microscope equipped with a Perkin Elmer Ultra-view/Yokogawa C10 spinning disk laser confocal illuminator. Cells were illuminated with the 488 nm laser; CG-calcium fluorescence signals were collected at 509 nm. Cells were visualized with a X40 water immersion objective. Images were collected with a Hammamatsu Ocra-ER charge-coupled device camera. The confocal system, including image collection, was controlled by Perkin-Elmer Improvision software.
Cells on coverslips were constantly perfused with normal Krebs solution at 29° C. at a rate of 3 ml/min. After 10 min, the perfusion solution was switched to one containing 12 mM glucose and proportionally less sodium chloride to maintain osmolality. The 12 mM glucose challenge was applied for 5 min, followed by a 5 min washout period. Images of CG-labeled cells were collected continuously during the challenge period at a rate of 20/min, with each frame taking 1 s. Images were collected as TIFF stacks and processed using Nikon Elements AR software. Individual cells in the field were designated as regions of interest (ROI), and their fluorescence signal over time was captured. Background fluorescence was subtracted from the fluorescence signal of individual ROIs. The relative changes in cytoplasmic calcium in the cells were expressed as changes in fluorescence [(AF/F) %], where F is the intensity of the baseline fluorescence signal before stimulation and AF is the difference between the peak fluorescence intensity and the baseline signal. Therefore, magnitude of response was normalized for each individual ROI.

[8] = pretreated 18 h with I-NMMA plus IL-1β, 12 mM glucose

Structure (SMILES)	recovery of insulin secretion (832/13 cells [1]; IL-1β 18 h, 10 uM DMM during final 2 h)	insulin secretion [2]	recovery of insulin secretion (832/13 cells [1]; IL-1β 1 ng/ml + I-NMMA 1 mM, 18 h)	IL-1β-induced synthesis and secretion of CCL2 with NOS inhibitor (CCL2)	IL-1β-induced CCL20 secretion with NOS inhibitor (CCL20)	IL-1β-induced nitrite production in presence of inhibitor (832/13 cells [3])	IL-1β-induced nitric oxide production in presence of inhibitor (832/13 cells [4])	IL-1β-induced decrease in MTS reduction with NOS inhibitor (832/13 cells [5])	IL-1β-induced decrease in oxygen consumption rate with NOS inhibitor (832/13 cells [6])	IL-1β-reduced change in intracellular calcium with NOS inhibitor (832/13 cells [7]; 1 mM I-NMMA)	magnitude of the response (832/13 cells [7]; [8]) [%]	number of responsive cells (832/13 cells [7]; [8]) [%]	responders and response magnitude relative to control pretreatment (832/13 cells [7]; pretreated with I-NMMA alone)
COC(=O)CC(O)C(=O)OC (stereo not shown) [dimethyl malate, reference compound]	could be recovered; also recorded: enhanced insulin secretion	improves insulin secretion	–	–	–	–	–	–	–	–	–	–	–
CNC(=N)NCCC[C@H](N)C(=O)O [I-NMMA, N^G-monomethyl-L-arginine, reference compound]	–	–	almost complete recovery	not altered	not impacted	completely inhibited	lack of IL-Iβ-mediated elevations in nitric oxide formation	fully recovered	prevented	completely prevented	30	89	differed neither in the number of responders nor in the magnitude of the responses
